# According to patent publication US10544138B2, “Tricyclic kinase inhibitors of MELK and methods of use” (Dana-Farber Cancer Institute, Inc., priority 2015, dated 2020):
# Target: T1, MELK (Homo sapiens, UniProt Q14680)
# Experiment: Electrophoretic mobility (auto-phosphorylation) of MELK in nocodazole-arrested mitotic cells, immunoblotting
# Assay type: cell-based
# Conditions: nocodazole-arrested mitotic cells (HeLa, MDA-MB-231), 30 min, increasing concentration
# Experimental: […] assays were performed with recombinant protein of the indicated mitotic kinase (left) and AMPK family kinases (right) in the presence of THZ-4-63-1. […] Cells were treated with nocodazole (100 ng/ml) for 18 h or not treated (Asyn., asynchronous). Nocodazole-arrested mitotic cells (M) were isolated via shake-off. The attached cells enriched in G2 phase (G2) were harvested. A portion of the mitotic cells were washed off nocodazole and released into G1 phase after 4 hours of incubation (G1). […] In Panel D, mitotic lysates were prepared from the indicated cells, and treated with λ-phosphatase at 30° C. In Panel E, nocodazole-arrested mitotic cells were treated with increasing concentration of THZ-4-63-1 for 30 min. Cell lysates were subjected to immunoblotting.
# (§1) Cell lysates were subjected to immunoblotting. […] The fluorescent signals of immunblotting were quantified using Image Studio Lite software (Licor Biosciences, Lincoln, Neb.). The signal of phosphorylated Aurora kinases was normalized to that of loading control (α-tubulin).
# (§2) We next proceeded to test if THZ-4-63-1 inhibits MELK activity in vivo. With a lack of established kinase substrates of MELK during mitosis, we used the auto-phosphorylation of MELK as a surrogate to indicate the activity of MELK. […] We then harvested nocodazole-arrested mitotic cells, and treated cells with increasing concentrations of THZ-4-63-1.
# T1 sequence (Q14680 whole entry): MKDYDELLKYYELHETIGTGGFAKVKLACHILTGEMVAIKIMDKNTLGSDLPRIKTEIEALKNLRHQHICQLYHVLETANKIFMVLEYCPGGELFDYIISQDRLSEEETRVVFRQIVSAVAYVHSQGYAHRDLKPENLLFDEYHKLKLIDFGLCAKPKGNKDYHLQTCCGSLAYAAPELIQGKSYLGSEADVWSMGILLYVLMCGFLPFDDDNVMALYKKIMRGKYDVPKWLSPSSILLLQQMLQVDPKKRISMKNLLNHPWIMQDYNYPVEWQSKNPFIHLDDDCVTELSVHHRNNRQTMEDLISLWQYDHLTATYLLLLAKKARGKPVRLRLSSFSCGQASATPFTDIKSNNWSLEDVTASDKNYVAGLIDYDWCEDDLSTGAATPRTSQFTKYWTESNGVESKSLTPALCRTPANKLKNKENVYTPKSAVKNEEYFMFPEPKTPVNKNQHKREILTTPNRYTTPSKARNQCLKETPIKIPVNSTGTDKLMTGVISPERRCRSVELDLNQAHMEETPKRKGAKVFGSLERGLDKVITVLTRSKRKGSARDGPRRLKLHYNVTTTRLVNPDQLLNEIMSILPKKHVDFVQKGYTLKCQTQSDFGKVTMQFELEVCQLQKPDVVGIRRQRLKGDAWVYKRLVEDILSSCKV
row,SMILES,Electrophoretic mobility of mitotic MELK
1,"O=C(O)c1ccc(Nc2ncc3c(n2)-c2ccc(Cl)cc2C(c2c(F)cccc2F)=NC3)cc1 [MLN8054, reference compound]",does not alter the electrophoretic mobility of MELK
2,"O=C1NC(=NCc2cccs2)S/C1=C\c1ccc2ncccc2c1 [RO-3306, reference compound]",does not change the electrophoretic mobility of MELK

# Tested on: MDA-MB-468
# Experiment: Cell growth with paclitaxel combination in MDA-MB-468
# Assay type: cell-based, human
# Conditions: 2 nM
# Experimental: Mitotic cells were treated with THZ-4-63-1 at indicated concentrations for 4 h. Cells were collected for immunoblotting. Panel B contains time-lapse images of U2OS-(H2B-GFP) cells treated with THZ-4-63-1 (5 μM). […] Panel C contains blots showing proteasome-mediated degradation of Cyclin B1, Aurora B and MELK in THZ-4-63-1-induced mitotic slippage. Mitotic cells were treated as in Panel A with THZ-4-63-1 (5 μM), or MG132 (10 μM), or both for 4 h. Panel D contains a graph showing quantification of cell proliferation in the indicated breast cancer cell lines, which were treated with vehicle control or THZ-4-63-1 for one week (Top) and also contains bright-field images acquired from control cells or cells treated with THZ-4-63-1 (111 nM) (Bottom). […] Cells were treated with indicated drugs, and harvested in ten days for quantification of cell growth. The bold curve depicts the theoretic prediction of an additive action between paclitaxel and THZ-4-63-1.
# Because microtubule-targeting chemotherapy is the mainstay of treatment for many types of cancer including basal-like breast cancer, we asked if MELK inhibition could combine with drugs that impair microtubule dynamics. […]
row,SMILES,"Reduction of cell proliferation, paclitaxel alone"
1,"CC(=O)O[C@H]1C(=O)[C@@]2(C)[C@H]([C@H](OC(=O)c3ccccc3)[C@]3(O)C[C@H](OC(=O)[C@H](O)[C@@H](NC(=O)c4ccccc4)c4ccccc4)C(C)=C1C3(C)C)[C@]1(OC(C)=O)CO[C@@H]1C[C@@H]2O [paclitaxel, reference compound]",half reduction

# Target: T1, MELK
# Experiment: Z′-LYTE biochemical assay, MELK inhibition
# Parameters: purchased Life Technologies
# Conditions: 25 uM ATP concentration; read-out: MELK IC50 as determined by Z′-LYTE biochemical assay
# Experimental: The invention also provides methods for inhibiting MELK, comprising contacting MELK with a compound of the invention in an amount effective to inhibit MELK. In certain embodiments, the method is conducted in vitro. In certain embodiments, the method is conducted in vivo. Inhibition of MELK can be determined by the Z′-LYTE® biochemical assay from Life Technologies (Life Technologies Z′-LYTE® Screening Protocol and Assay Conditions, June 2012, incorporated herein by reference).
# Generally, IC50 against MELK was determined by Z′-LYTE® biochemical assay and are measured in nM at 25 uM ATP concentration.
row,SMILES,IC50 [nM]
1,O=c1ccc2cnc3ccc(-c4cc(Cl)c(O)c(Cl)c4)cc3c2n1-c1ccc(N2CCNCC2)c(C(F)(F)F)c1 [Compound 01-045],7.63
2,CC(=O)N1CCN(c2ccc(-n3c(=O)ccc4cnc5ccc(-c6cc(Cl)c(O)c(Cl)c6)cc5c43)cc2C(F)(F)F)CC1 [Compound 01-071],294
3,O=C1NCc2cnc3ccc(-c4cc(Cl)c(O)c(Cl)c4)cc3c2N1c1ccc(N2CCNCC2)c(C(F)(F)F)c1 [Compound 01-088],5.48
4,O=c1ccc2cnc3ccc(-c4cccc(O)c4)cc3c2n1-c1ccc(N2CCNCC2)c(C(F)(F)F)c1 [Compound 01-092],146
5,O=c1ccc2cnc3ccc(-c4ccc(CO)cc4)cc3c2n1-c1ccc(N2CCNCC2)c(C(F)(F)F)c1 [Compound 01-101],119

# Further lines, results first:
row,IC50 [nM],SMILES
1,9.6,"CN(C)C[C@H]1CC[C@H](n2c(=O)ccc3cnc4ccc(-c5cc(Cl)c(O)c(Cl)c5)cc4c32)CC1 [Compound 01-087, 9-(3,5-dichloro-4-hydroxyphenyl)-1-(trans-4-((dimethylamino)methyl)cyclohexyl)benzo-[h][1,6]naphthyridin-2(1H)-one]"
2,10.5,"CN(C)C[C@H]1CC[C@H](N2C(=O)NCc3cnc4ccc(-c5cc(Cl)c(O)c(Cl)c5)cc4c32)CC1 [Compound 01-091, 9-(3,5-dichloro-4-hydroxyphenyl)-1-(trans-4-((dimethylamino)methyl)cyclohexyl)-3,4-dihydropyrimido[5,4-c]quinolin-2(1H)-one]"
3,2.16,O=C1NCc2cnc3ccc(-c4cc(Cl)c(O)c(Cl)c4)cc3c2N1c1ccc(N2CCNCC2)cc1 [Compound 01-100]
4,4990,CN(C)C[C@H]1CC[C@H](N2C(=O)NCc3cnc4ccc(-c5ccc(NS(C)(=O)=O)cc5)cc4c32)CC1 [Compound 01-131]
5,9.4,CN(C)Cc1ccc(N2C(=O)NCc3cnc4ccc(-c5cc(Cl)c(O)c(Cl)c5)cc4c32)cc1 [Compound 01-144]
6,404,CN(C)CC1CCC(CN2C(=O)NCc3cnc4ccc(-c5cc(Cl)c(O)c(Cl)c5)cc4c32)CC1 (stereo not drawn) [Compound 02-020]
7,1.85,"CN(C)C[C@H]1CC[C@H](n2c(=O)[nH]c3cnc4ccc(-c5cc(Cl)c(O)c(Cl)c5)cc4c32)CC1 [Compound 02-022, 8-(3,5-dichloro-4-hydroxyphenyl)-1-(trans-4-((dimethylamino)methyl)cyclohexyl)-1,3-dihydro-2H-imidazo[4,5-c]quinolin-2-one]"
8,386,CN1CCC(CN2C(=O)NCc3cnc4ccc(-c5cc(Cl)c(O)c(Cl)c5)cc4c32)CC1 [Compound 02-029]
9,2.16,"CN(C)C[C@H]1CC[C@H](n2c(=O)n(C)c3cnc4ccc(-c5cc(Cl)c(O)c(Cl)c5)cc4c32)CC1 [Compound 02-084, 8-(3,5-dichloro-4-hydroxyphenyl)-1-(trans-4-((dimethylamino)methyl)cyclohexyl)-3-methyl-1,3-dihydro-2H-imidazo[4,5-c]quinolin-2-one]"
10,27.1,"CN(C)C[C@H]1CC[C@H](N2C(=O)N(C)Cc3cnc4ccc(-c5cc(Cl)c(O)c(Cl)c5)cc4c32)CC1 [Compound 02-095, 9-(3,5-dichloro-4-hydroxyphenyl)-1-(trans-4-((dimethylamino)methyl)cyclohexyl)-3-methyl-3,4-dihydropyrimido[5,4-c]quinolin-2(1H)-one]"
11,2.8,CN(C)C[C@H]1CC[C@H](N2C(=O)N(C)Cc3cnc4ccc(-c5cc(Cl)c(O)c(Cl)c5)nc4c32)CC1 [Compound 02-096]

# Tested on: Histone H3 phosphorylation at Thr3
# Experiment: Histone H3 Thr3 phosphorylation in arrested mitotic cells, immunoblotting
# Assay type: cell-based
# Conditions: paclitaxel- or nocodazole-arrested mitotic cells, 30 min, with MG132
# Experimental: Cell lysates were prepared for immunoblotting. […] HeLa cells were treated with DMSO or THZ-4-63-1 (5 μM) for 4 h followed by 1 h treatment of MG132 (10 μM). Cells were fixed and stained with anti-H3T3ph and anti-CREST. […] Cells were treated as in FIG. 2, Panel D, and additionally treated with MG132 (10 μM) for 1 h before fixation. The histogram indicates the quantification of H3S10ph signal. […] MCF-10A cells stably expressing empty vector (EV) or MELK were fixed for immunostaining. Images were captured with identical exposure time. H3T3ph intensity was quantified by the use of ImageJ. […] Recombinant MELK protein (kinase domain) was incubated with recombinant Histone H3 for 30 min at 30° C. Samples were subjected to immunoblotting using the indicated antibodies. […] Cells stably expressing GFP-MELK were fixed by formaldehyde and stained with anti-H3S10ph. […] Asynchronized (Async.) or nocodazole-arrested mitotic cells were subjected to fractionation, with sample prepared for immunoblotting. Panels H and I are images showing that MELK inhibition impairs the localization of chromosome passenger complex (CPC), indicated by the immunofluorescence detecting Survivin (G) and Aurora B (H). In addition to the presence of doxycyclin or THZ-4-63-1, cells were treated with nocodazole (0.33 μM) and MG132 (10 μM) for 3 h before fixation.
# Cell lysates were prepared for immunoblotting. […]
row,SMILES,Histone H3 phosphorylation at Thr3
1,"Cc1cc(Nc2cc(N3CCN(C)CC3)nc(Sc3ccc(NC(=O)C4CC4)cc3)n2)n[nH]1 [VX-680, reference compound]",inhibition of the downstream Histone H3 phosphorylation at Thr3

# Tested on: Aurora kinases
# Experiment: Aurora kinase phosphorylation in mitotic cells, immunoblotting
# Assay type: cell-based
# Conditions: 30 min
# Experimental: as §1
# Cell lysates were prepared for immunoblotting. In Panels B and C, THZ-4-63-1 inhibits H3T3 phosphorylation in HeLa (B) and U2OS (C) cells. Nocodazole arrested mitotic cells were treated with THZ-4-63-1 at the indicated doses for 30 min. […] Cell lysates were subjected to immunblotting. The signal of H3T3 phosphorylation was normalized to that of α-tubulin (right).
# as §2
# We exposed paclitaxel- or nocodazole-arrested mitotic cells to the individual inhibitor for 30 min in the presence of MG132, and collected lysates for examining signaling involved in chromosome alignment. […] Recent studies unravel a novel role of Aurora B in phosphorylating Haspin^7, a major factor responsible for phosphorylating Histone H3 at Thr3^14. […]
row,SMILES,Phosphorylation of Aurora kinases
1,"Cc1cc(Nc2cc(N3CCN(C)CC3)nc(Sc3ccc(NC(=O)C4CC4)cc3)n2)n[nH]1 [VX-680, reference compound]",efficiently suppressed the auto-phosphorylation of Aurora kinases
